Assay results reported in US12172995B2, “Substituted indole and indazole compounds” (BRISTOL-MYERS SQUIBB COMPANY, priority 2018, dated 2024).

Experiments:
Format in all cases: cell-based
human TLR7 = molecular target: T1, human TLR7 (Homo sapiens, UniProt Q9NYK1); assay: TLR7 inhibition reporter assay (HEK-Blue SEAP); conditions: HEK-Blue cells overexpressing human TLR7, stimulated with gardiquimod 7.5 μM, 22 hour incubation
T1 construct: host or cells: HEK-Blue cells
T1 sequence (Q9NYK1 27-1049): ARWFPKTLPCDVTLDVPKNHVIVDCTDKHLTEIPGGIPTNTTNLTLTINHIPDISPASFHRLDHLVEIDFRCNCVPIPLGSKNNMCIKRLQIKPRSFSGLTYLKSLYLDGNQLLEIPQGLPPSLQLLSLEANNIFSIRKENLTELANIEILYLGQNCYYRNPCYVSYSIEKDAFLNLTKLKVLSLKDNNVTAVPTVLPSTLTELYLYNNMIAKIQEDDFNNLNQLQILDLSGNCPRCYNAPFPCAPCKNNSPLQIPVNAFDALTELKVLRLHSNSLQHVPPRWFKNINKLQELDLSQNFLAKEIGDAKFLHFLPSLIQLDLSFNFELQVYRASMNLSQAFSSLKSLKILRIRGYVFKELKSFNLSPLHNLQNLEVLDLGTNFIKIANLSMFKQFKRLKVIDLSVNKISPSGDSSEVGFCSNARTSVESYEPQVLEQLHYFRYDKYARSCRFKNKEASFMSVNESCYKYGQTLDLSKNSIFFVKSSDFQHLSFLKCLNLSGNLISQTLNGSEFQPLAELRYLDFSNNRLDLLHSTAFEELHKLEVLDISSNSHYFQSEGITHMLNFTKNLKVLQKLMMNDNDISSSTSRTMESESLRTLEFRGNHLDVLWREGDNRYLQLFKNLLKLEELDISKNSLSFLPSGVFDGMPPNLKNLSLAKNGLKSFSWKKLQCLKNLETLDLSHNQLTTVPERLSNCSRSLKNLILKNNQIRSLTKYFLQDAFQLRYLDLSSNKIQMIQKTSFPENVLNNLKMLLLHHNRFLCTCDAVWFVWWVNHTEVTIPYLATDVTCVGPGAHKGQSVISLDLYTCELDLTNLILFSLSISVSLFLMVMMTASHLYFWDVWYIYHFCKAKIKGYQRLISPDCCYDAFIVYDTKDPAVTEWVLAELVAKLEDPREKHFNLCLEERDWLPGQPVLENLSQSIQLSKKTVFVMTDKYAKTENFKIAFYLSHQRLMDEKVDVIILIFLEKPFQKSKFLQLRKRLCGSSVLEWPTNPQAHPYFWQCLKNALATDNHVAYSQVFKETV
Experimental: (§1) TLR7/8/9 Inhibition Reporter Assays
(§2) HEK-Blue™-cells (Invivogen) overexpressing human TLR7, TLR8 or TLR9 receptors were used for screening inhibitors of these receptors using an inducible SEAP (secreted embryonic alkaline phosphatase) reporter gene under the control of the IFN-β minimal promoter fused to five NF-κB and AP-1-binding sites. Briefly, cells are seeded into Greiner 384 well plates (15000 cells per well for TLR7, 20,000 for TLR8 and 25,000 for TLR9) and then treated with test compounds in DMSO to yield a final dose response concentration range of 0.05 nM to 50 μM. After a 30 minute compound pre-treatment at room temperature, the cells are then stimulated with a TLR7 ligand (gardiquimod at a final concentration of 7.5 μM), TLR8 ligand (R848 at a final concentration of 15.9 μM) or TLR9 ligand (ODN2006 at a final concentration of 5 nM) to activate NF-κB and AP-1 which induce the production of SEAP. After a 22 hour incubation at 37° C., 5% CO2, SEAP levels are determined with the addition of HEK-Blue™ Detection reagent (Invivogen), a cell culture medium that allows for detection of SEAP, according to manufacturer's specifications. The percent inhibition is determined as the % reduction in the HEK-Blue signal present in wells treated with agonist plus DMSO alone compared to wells treated with a known inhibitor.

human TLR8 = molecular target: T2, human TLR8 (Homo sapiens, UniProt Q9NR97); assay: TLR8 inhibition reporter assay (HEK-Blue SEAP); conditions: HEK-Blue cells overexpressing human TLR8, stimulated with R848 15.9 μM, 22 hour incubation
T2 construct: host or cells: HEK-Blue cells
T2 sequence (Q9NR97 27-1041): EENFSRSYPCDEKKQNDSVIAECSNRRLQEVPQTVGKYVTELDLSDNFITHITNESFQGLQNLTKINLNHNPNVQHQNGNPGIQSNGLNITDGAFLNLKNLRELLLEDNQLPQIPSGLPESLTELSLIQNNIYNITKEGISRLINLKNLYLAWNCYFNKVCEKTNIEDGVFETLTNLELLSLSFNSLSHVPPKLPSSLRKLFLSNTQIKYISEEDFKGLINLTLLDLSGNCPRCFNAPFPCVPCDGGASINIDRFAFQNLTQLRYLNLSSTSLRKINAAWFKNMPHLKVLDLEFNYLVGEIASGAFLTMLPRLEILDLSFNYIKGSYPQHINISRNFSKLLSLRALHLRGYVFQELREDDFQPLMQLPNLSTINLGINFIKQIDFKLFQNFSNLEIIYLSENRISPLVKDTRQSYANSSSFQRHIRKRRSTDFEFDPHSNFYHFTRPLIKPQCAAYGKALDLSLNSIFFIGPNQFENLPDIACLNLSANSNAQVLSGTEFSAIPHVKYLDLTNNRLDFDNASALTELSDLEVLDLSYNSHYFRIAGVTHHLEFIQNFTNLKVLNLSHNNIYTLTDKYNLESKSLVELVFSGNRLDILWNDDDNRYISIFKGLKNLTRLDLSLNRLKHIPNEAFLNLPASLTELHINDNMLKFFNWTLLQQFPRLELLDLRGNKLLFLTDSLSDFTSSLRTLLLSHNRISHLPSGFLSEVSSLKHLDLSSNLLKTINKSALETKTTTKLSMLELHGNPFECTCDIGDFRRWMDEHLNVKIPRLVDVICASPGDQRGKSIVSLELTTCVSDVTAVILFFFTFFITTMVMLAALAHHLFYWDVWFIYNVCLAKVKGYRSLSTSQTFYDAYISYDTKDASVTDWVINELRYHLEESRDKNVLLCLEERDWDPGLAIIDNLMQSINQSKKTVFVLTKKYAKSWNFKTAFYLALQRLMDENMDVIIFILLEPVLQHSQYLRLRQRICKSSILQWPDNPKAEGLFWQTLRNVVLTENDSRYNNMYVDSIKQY
Experimental: as §1, §2

human TLR9 = molecular target: T3, human TLR9 (Homo sapiens, UniProt Q9NR96); assay: TLR9 inhibition reporter assay (HEK-Blue SEAP); conditions: HEK-Blue cells overexpressing human TLR9, stimulated with ODN2006 5 nM, 22 hour incubation
T3 construct: host or cells: HEK-Blue cells
T3 sequence (Q9NR96 26-1032): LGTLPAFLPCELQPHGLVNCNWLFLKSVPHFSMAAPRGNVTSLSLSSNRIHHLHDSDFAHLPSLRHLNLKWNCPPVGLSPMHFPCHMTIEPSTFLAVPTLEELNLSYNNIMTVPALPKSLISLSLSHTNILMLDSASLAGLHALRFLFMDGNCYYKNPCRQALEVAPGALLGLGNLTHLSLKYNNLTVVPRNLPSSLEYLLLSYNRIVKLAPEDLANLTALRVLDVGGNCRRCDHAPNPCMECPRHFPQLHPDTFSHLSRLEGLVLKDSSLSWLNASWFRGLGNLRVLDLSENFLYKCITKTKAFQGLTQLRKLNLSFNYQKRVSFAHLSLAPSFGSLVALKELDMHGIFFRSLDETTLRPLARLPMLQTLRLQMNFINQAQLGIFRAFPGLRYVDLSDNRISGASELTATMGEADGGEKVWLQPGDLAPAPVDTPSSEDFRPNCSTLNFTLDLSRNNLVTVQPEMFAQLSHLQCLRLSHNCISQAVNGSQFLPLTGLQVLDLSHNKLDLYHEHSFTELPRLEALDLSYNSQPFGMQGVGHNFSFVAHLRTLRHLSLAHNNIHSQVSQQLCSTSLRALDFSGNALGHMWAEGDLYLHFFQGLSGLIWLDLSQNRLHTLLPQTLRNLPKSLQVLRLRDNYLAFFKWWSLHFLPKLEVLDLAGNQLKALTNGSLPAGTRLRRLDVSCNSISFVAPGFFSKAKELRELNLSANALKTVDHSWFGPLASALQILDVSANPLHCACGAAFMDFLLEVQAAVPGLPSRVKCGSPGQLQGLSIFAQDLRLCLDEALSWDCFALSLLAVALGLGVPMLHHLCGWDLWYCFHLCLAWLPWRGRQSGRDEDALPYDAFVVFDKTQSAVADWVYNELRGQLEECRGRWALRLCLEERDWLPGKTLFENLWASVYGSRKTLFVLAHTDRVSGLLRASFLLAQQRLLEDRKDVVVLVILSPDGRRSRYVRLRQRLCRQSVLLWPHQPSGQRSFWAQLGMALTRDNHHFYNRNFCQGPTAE
Experimental: as §1, §2

Row | SMILES | IC50 (human TLR7) | IC50 (human TLR8) | IC50 (human TLR9)
1 | CCc1cc2c(C3CCC(N(C)C)CC3)n[nH]c2cc1-c1cc(C)c2ncnn2c1 (single isomer, unassigned) [Example 93, 4-(5-ethyl-6-(8-methyl-[1,2,4]triazolo[1,5-a]pyridin-6-yl)-1H-indazol-3-yl)-N,N-dimethylcyclohexan-1-amine] | 0.8 nM | 0.1 nM | 6120 nM
2 | CCc1cc2c(C3CCC(N(C)C)CC3)n[nH]c2cc1-c1cc(C)c2ncnn2c1 (single isomer, unassigned) [Example 94, 4-(5-ethyl-6-(8-methyl-[1,2,4]triazolo[1,5-a]pyridin-6-yl)-1H-indazol-3-yl)-N,N-dimethylcyclohexan-1-amine] | 3 nM | 0.5 nM | 10300 nM
3 | CCc1cc2c(C3CCC(NCCS(C)(=O)=O)CC3)n[nH]c2cc1-c1cc(C)c2ncnn2c1 (single isomer, unassigned) [Example 99, 4-(5-ethyl-6-(8-methyl-[1,2,4]triazolo[1,5-a]pyridin-6-yl)-1H-indazol-3-yl)-N-(2-(methylsulfonyl)ethyl)cyclohexan-1-amine] | 0.9 nM | 0.1 nM | 14000 nM
4 | CCc1cc2c(C3CCC(NCCS(C)(=O)=O)CC3)n[nH]c2cc1-c1cc(C)c2ncnn2c1 (single isomer, unassigned) [Example 100, 4-(5-ethyl-6-(8-methyl-[1,2,4]triazolo[1,5-a]pyridin-6-yl)-1H-indazol-3-yl)-N-(2-(methylsulfonyl)ethyl)cyclohexan-1-amine] | 7.5 nM | 0.2 nM | 17500 nM
5 | Cc1cc(-c2cc3[nH]nc(C4CCC(NCC(=O)N(C)C)CC4)c3cc2C(C)C)cn2ncnc12 (single isomer, unassigned) [Example 125, 2-((4-(5-isopropyl-6-(8-methyl-[1,2,4]triazolo[1,5-a]pyridin-6-yl)-1H-indazol-3-yl)cyclohexyl)amino)-N,N-dimethylacetamide] | 2.5 nM | 0.3 nM | 12100 nM
6 | Cc1cc(-c2cc3[nH]nc(C4CCC(N5CC6(COC6)C5)CC4)c3cc2C(C)C)cn2ncnc12 (single isomer, unassigned) [Example 128, 6-(4-(5-isopropyl-6-(8-methyl-[1,2,4]triazolo[1,5-a]pyridin-6-yl)-1H-indazol-3-yl)cyclohexyl)-2-oxa-6-azaspiro[3.3]heptane] | 0.6 nM | 0.2 nM | 9560 nM
7 | Cc1cc(-c2cc3[nH]nc(C4CCC(N5CC6(COC6)C5)CC4)c3cc2C(C)C)cn2ncnc12 (single isomer, unassigned) [Example 129, 6-(4-(5-isopropyl-6-(8-methyl-[1,2,4]triazolo[1,5-a]pyridin-6-yl)-1H-indazol-3-yl)cyclohexyl)-2-oxa-6-azaspiro[3.3]heptane] | 4.1 nM | 0.5 nM | 7550 nM

More lines, now with the values ahead:

Row | IC50 (human TLR7) | IC50 (human TLR8) | IC50 (human TLR9) | SMILES
8 | 0.6 nM | 0.1 nM | 5450 nM | CCc1cc2c(C3CCC(NC4CC4)CC3)n[nH]c2cc1-c1cc(C)c2ncnn2c1 (single isomer, unassigned) [Example 97, N-cyclopropyl-4-(5-ethyl-6-(8-methyl-[1,2,4]triazolo[1,5-a]pyridin-6-yl)-1H-indazol-3-yl)cyclohexan-1-amine]
9 | 2.5 nM | 0.2 nM | 6570 nM | CCc1cc2c(C3CCC(NC4CC4)CC3)n[nH]c2cc1-c1cc(C)c2ncnn2c1 (single isomer, unassigned) [Example 98, N-cyclopropyl-4-(5-ethyl-6-(8-methyl-[1,2,4]triazolo[1,5-a]pyridin-6-yl)-1H-indazol-3-yl)cyclohexan-1-amine]
10 | 0.3 nM | 0.1 nM | 4130 nM | Cc1cc(-c2cc3[nH]nc(C4CCC(NC5CC5)CC4)c3cc2C(C)C)cn2ncnc12 (single isomer, unassigned) [Example 118, N-cyclopropyl-4-(5-isopropyl-6-(8-methyl-[1,2,4]triazolo[1,5-a]pyridin-6-yl)-1H-indazol-3-yl)cyclohexan-1-amine]
11 | 1 nM | 0.1 nM | 4920 nM | Cc1cc(-c2cc3[nH]nc(C4CCC(NC5CC5)CC4)c3cc2C(C)C)cn2ncnc12 (single isomer, unassigned) [Example 119, N-cyclopropyl-4-(5-isopropyl-6-(8-methyl-[1,2,4]triazolo[1,5-a]pyridin-6-yl)-1H-indazol-3-yl)cyclohexan-1-amine]
